Patent US8563730B2, “Pyrazole and fused pyrazole glucokinase activators” (Takeda San Diego, Inc., priority 2008, dated 2013)
Like-named read-outs stand apart in the source and are kept apart here.

Target: T1, GK (glucokinase, residues 12-465) (Homo sapiens, UniProt P35557)
T1 construct: I.D. No. 1 corresponds to residues 12-465 of glucokinase; made in house; host or cells: DH10b-T1r E. coli
T1 sequence (P35557 with tags, fused parts or gaps isoform P35557-2): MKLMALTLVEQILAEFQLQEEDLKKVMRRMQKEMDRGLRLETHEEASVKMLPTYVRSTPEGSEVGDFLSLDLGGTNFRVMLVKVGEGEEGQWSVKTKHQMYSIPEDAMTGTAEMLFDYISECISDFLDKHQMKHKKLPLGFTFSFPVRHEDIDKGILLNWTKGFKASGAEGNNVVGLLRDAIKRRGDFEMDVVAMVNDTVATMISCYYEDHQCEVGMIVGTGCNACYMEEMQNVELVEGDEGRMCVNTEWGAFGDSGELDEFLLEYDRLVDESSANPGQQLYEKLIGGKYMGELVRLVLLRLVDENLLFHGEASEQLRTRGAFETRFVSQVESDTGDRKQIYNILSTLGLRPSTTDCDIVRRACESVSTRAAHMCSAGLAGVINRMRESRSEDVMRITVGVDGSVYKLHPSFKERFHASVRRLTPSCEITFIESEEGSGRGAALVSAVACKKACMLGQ
Experiment: enzymatic glucokinase activity assay (ATP consumption, KinaseGlo luminescence)
Format: biochemical
Settings: 5 μM ATP, 5 mM Glucose, reported as bins; for EC50: Kact = concentration that displays 50% of the maximal increase in GK activity, 60 min, room temperature, read-out: pKact
Method in brief: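 E. coli-expressed recombinant GK purified by two anion-exchange steps. Reaction in 25 mM Hepes pH 7.2, 10 mM MgCl2, 1 mM DTT, 5 μM ATP, 5 mM glucose, 2% DMSO, 60 min at room temperature. ATP consumption quantified by KinaseGlo luminescence; pKact and % ACTmax derived by non-linear curve fitting.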

[1] = calculated maximal gain in GK enzyme activity at a saturating concentration of the compound, read-out: % ACTmax

`Cn1ccc(NC(=O)[C@H](CC2CCOCC2)n2ncc3c(S(=O)(=O)C4CC4)cccc32)n1` [Compound 119] showed an EC50 of 398 to 1260 nM and an Emax (read-out: % ACTmax, calculated maximal gain in GK enzyme activity at a saturating concentration of the compound) of 90 to 100%.

`N#Cc1cc(S(=O)(=O)C2CC2)c2cnn(C(CC3CCOCC3)C(=O)Nc3ncc(F)s3)c2c1` (stereo not shown) [Compound 120, 2-(6-cyano-4-(cyclopropylsulfonyl)-1H-indazol-1-yl)-N-(5-fluorothiazol-2-yl)-3-(tetrahydro-2H-pyran-4-yl)propanamide] showed an EC50 of no more than 316 nM and an Emax [1] of 90 to 100%.

Molecule `O=C(Nc1ncc(F)s1)C(CC1CCOCC1)n1ncc2c(S(=O)(=O)C3CC3)cc(Cl)cc21` (stereo not shown) [Compound 121, 2-(6-chloro-4-(cyclopropylsulfonyl)-1H-indazol-1-yl)-N-(5-fluorothiazol-2-yl)-3-(tetrahydro-2H-pyran-4-yl)propanamide] has an EC50 of no more than 316 nM and an Emax [1] of 90 to 100%.

With `Cc1cc(S(=O)(=O)C2CC2)c2cnn(C(CC3CCOCC3)C(=O)Nc3ncc(F)s3)c2c1` (stereo not shown) [Compound 122, 2-(4-(cyclopropylsulfonyl)-6-methyl-1H-indazol-1-yl)-N-(5-fluorothiazol-2-yl)-3-(tetrahydro-2H-pyran-4-yl)propanamide] the EC50 was 3980 to 12600 nM and the Emax [1] was no less than 111%.

In the case of `O=C(Nc1ncc(F)s1)[C@H](CC1CCOCC1)n1ncc2c(S(=O)(=O)C3CC3)cc(F)cc21` [Compound 123, (S)-2-(4-(cyclopropylsulfonyl)-6-fluoro-1H-indazol-1-yl)-N-(5-fluorothiazol-2-yl)-3-(tetrahydro-2H-pyran-4-yl)propanamide], the EC50 is reported as no more than 316 nM and the Emax [1] is reported as no less than 111%.

Molecule `O=C(Nc1ccncn1)C(CC1CCOCC1)n1ncc2c(S(=O)(=O)C3CC3)cccc21` (stereo not shown) [Compound 124, 2-(4-(cyclopropylsulfonyl)-1H-indazol-1-yl)-N-(pyrimidin-4-yl)-3-(tetrahydro-2H-pyran-4-yl)propanamide] has an EC50 of 3980 to 12600 nM and an Emax [1] of no less than 111%.

Work on `N#Cc1cnc(NC(=O)C(CC2CCOCC2)n2ncc3c(S(=O)(=O)C4CC4)cccc32)s1` (stereo not shown) [Compound 125, N-(5-cyanothiazol-2-yl)-2-(4-(cyclopropylsulfonyl)-1H-indazol-1-yl)-3-(tetrahydro-2H-pyran-4-yl)propanamide] yielded an EC50 of 1580 to 3160 nM and an Emax [1] of no less than 111%.

`N#Cc1cnc(NC(=O)C(CC2CCOCC2)n2ncc3c(S(=O)(=O)C4CC4)cccc32)nc1` (stereo not shown) [Compound 126, N-(5-cyanopyrimidin-2-yl)-2-(4-(cyclopropylsulfonyl)-1H-indazol-1-yl)-3-(tetrahydro-2H-pyran-4-yl)propanamide] gave an EC50 of no less than 15800 nM and an Emax [1] of no more than 90%.

Molecule `O=C(Nc1ncc(F)s1)C(CC1CCOCC1)n1ncc2c(S(=O)(=O)C3CC3)ccnc21` (stereo not shown) [Compound 127, 2-(4-(cyclopropylsulfonyl)-1H-pyrazolo[3,4-b]pyridin-1-yl)-N-(5-fluorothiazol-2-yl)-3-(tetrahydro-2H-pyran-4-yl)propanamide] has an EC50 of no more than 316 nM and an Emax [1] of 101 to 105%.

For `COc1cc(S(=O)(=O)C2CC2)c2cnn([C@@H](CC3CCOCC3)C(=O)Nc3ncc(F)s3)c2c1` [Compound 128, (S)-2-(4-(cyclopropylsulfonyl)-6-methoxy-1H-indazol-1-yl)-N-(5-fluorothiazol-2-yl)-3-(tetrahydro-2H-pyran-4-yl)propanamide], the EC50 was no more than 316 nM and the Emax [1] was 90 to 100%.

For `COc1cc(S(=O)(=O)C2CC2)c2cnn([C@H](CC3CCOCC3)C(=O)Nc3ncc(F)s3)c2c1` [Compound 129, (R)-2-(4-(cyclopropylsulfonyl)-6-methoxy-1H-indazol-1-yl)-N-(5-fluorothiazol-2-yl)-3-(tetrahydro-2H-pyran-4-yl)propanamide], the EC50 was 3980 to 12600 nM and the Emax [1] was no more than 90%.

`O=C(Nc1ncc(F)s1)C(CC1CCOCC1)n1ncc2c(S(=O)(=O)C3CC3)cc(O)cc21` (stereo not shown) [Compound 130, 2-(4-(cyclopropylsulfonyl)-6-hydroxy-1H-indazol-1-yl)-N-(5-fluorothiazol-2-yl)-3-(tetrahydro-2H-pyran-4-yl)propanamide] was tested, and the EC50 was no more than 316 nM and the Emax [1] was 101 to 105%.

`N#Cc1cc(S(=O)(=O)C2CC2)c2cnn([C@H](CC3CCOCC3)C(=O)Nc3ncc(F)s3)c2c1` [Compound 132, (R)-2-(6-cyano-4-(cyclopropylsulfonyl)-1H-indazol-1-yl)-N-(5-fluorothiazol-2-yl)-3-(tetrahydro-2H-pyran-4-yl)propanamide] was tested, and the EC50 was 1580 to 3160 nM and the Emax [1] was 90 to 100%.

`N#Cc1cc(S(=O)(=O)C2CC2)c2cnn([C@@H](CC3CCOCC3)C(=O)Nc3ncc(F)s3)c2c1` [Compound 133, (S)-2-(6-cyano-4-(cyclopropylsulfonyl)-1H-indazol-1-yl)-N-(5-fluorothiazol-2-yl)-3-(tetrahydro-2H-pyran-4-yl)propanamide] was tested, and the EC50 was no more than 316 nM and the Emax [1] was 101 to 105%.

Work on `Cc1cc(NC(=O)C(CC2CCOCC2)n2ncc3c(S(=O)(=O)C4CC4)cccc32)nn1C` (stereo not shown) [Compound 134, 2-(4-(cyclopropylsulfonyl)-1H-indazol-1-yl)-N-(1,5-dimethyl-1H-pyrazol-3-yl)-3-(tetrahydro-2H-pyran-4-yl)propanamide] yielded an EC50 of 1580 to 3160 nM and an Emax [1] of no less than 111%.

For `N#Cc1ccc(NC(=O)C(CC2CCOCC2)n2ncc3c(S(=O)(=O)C4CC4)cccc32)nc1` (stereo not shown) [Compound 135, N-(5-cyanopyridin-2-yl)-2-(4-(cyclopropylsulfonyl)-1H-indazol-1-yl)-3-(tetrahydro-2H-pyran-4-yl)propanamide], the EC50 was 398 to 1260 nM and the Emax [1] was 106 to 110%.

Work on `N#Cc1cnc(NC(=O)[C@H](CC2CCOCC2)n2ncc3c(S(=O)(=O)C4CC4)cccc32)s1` [Compound 136, (S)-N-(5-cyanothiazol-2-yl)-2-(4-(cyclopropylsulfonyl)-1H-indazol-1-yl)-3-(tetrahydro-2H-pyran-4-yl)propanamide] yielded an EC50 of 398 to 1260 nM and an Emax [1] of no less than 111%.

`N#Cc1cnc(NC(=O)[C@@H](CC2CCOCC2)n2ncc3c(S(=O)(=O)C4CC4)cccc32)s1` [Compound 137, (R)-N-(5-cyanothiazol-2-yl)-2-(4-(cyclopropylsulfonyl)-1H-indazol-1-yl)-3-(tetrahydro-2H-pyran-4-yl)propanamide] showed an EC50 of 3980 to 12600 nM and an Emax [1] of no more than 90%.

`O=C(Nc1ncc(F)s1)[C@H](CC1CCOCC1)n1ncc2c(S(=O)(=O)C3CC3)ccnc21` [Compound 138, (S)-2-(4-(cyclopropylsulfonyl)-1H-pyrazol[3,4-b]pyridin-1-yl)-N-(5-fluorothiazol-2-yl)-3-(tetrahydro-2H-pyran-4-yl)propanamide] showed an EC50 of 398 to 1260 nM and an Emax [1] of 90 to 100%.

Work on `O=C(Nc1ncc(F)s1)[C@@H](CC1CCOCC1)n1ncc2c(S(=O)(=O)C3CC3)ccnc21` [Compound 139, (R)-2-(4-(cyclopropylsulfonyl)-1H-pyrazol[3,4-b]pyridin-1-yl)-N-(5-fluorothiazol-2-yl)-3-(tetrahydro-2H-pyran-4-yl)propanamide] yielded an EC50 of no less than 15800 nM and an Emax [1] of 106 to 110%.

For `O=C(Nc1ncc(F)s1)C(CC1CCOCC1)n1cc2c(S(=O)(=O)C3CC3)cncc2n1` (stereo not shown) [Compound 140, 2-(4-(cyclopropylsulfonyl)-2H-pyrazol[3,4-c]pyridin-2-yl)-N-(5-fluorothiazol-2-yl)-3-(tetrahydro-2H-pyran-4-yl)propanamide], the EC50 was no less than 15800 nM and the Emax [1] was no more than 90%.

For `O=C(Nc1ncc(F)s1)[C@H](CC1CCOCC1)n1ncc2c(S(=O)(=O)C3CC3)cc(Cl)cc21` [Compound 141, (S)-2-(6-chloro-4-(cyclopropylsulfonyl)-1H-indazol-1-yl)-N-(5-fluorothiazol-2-yl)-3-(tetrahydro-2H-pyran-4-yl)propanamide], the EC50 was no more than 316 nM and the Emax [1] was 90 to 100%.

`Nc1cc(S(=O)(=O)C2CC2)c2cnn(C(CC3CCOCC3)C(=O)Nc3ncc(F)s3)c2c1` (stereo not shown) [Compound 142, 2-(6-amino-4-(cyclopropylsulfonyl)-1H-indazol-1-yl)-N-(5-fluorothiazol-2-yl)-3-(tetrahydro-2H-pyran-4-yl)propanamide] showed an EC50 of no more than 316 nM and an Emax [1] of 101 to 105%.

Work on `O=C(Nc1ncc(F)s1)C(CC1CCOCC1)n1ncc2c(S(=O)(=O)C3CC3)cc(OC(F)F)cc21` (stereo not shown) [Compound 143, 2-(4-(cyclopropylsulfonyl)-6-(difluoromethoxy)-1H-indazol-1-yl)-N-(5-fluorothiazol-2-yl)-3-(tetrahydro-2H-pyran-4-yl)propanamide] yielded an EC50 of no more than 316 nM and an Emax [1] of no more than 90%.

Work on `O=C(Nc1ncc(F)s1)C(CC1CCOCC1)n1ncc2c(S(=O)(=O)C3CC3)c(O)ccc21` (stereo not shown) [Compound 144, 2-(4-(cyclopropylsulfonyl)-5-hydroxy-1H-indazol-1-yl)-N-(5-fluorothiazol-2-yl)-3-(tetrahydro-2H-pyran-4-yl)propanamide] yielded an EC50 of no more than 316 nM and an Emax [1] of 106 to 110%.

`O=C(Nc1ncc(F)s1)[C@@H](CC1CCOCC1)n1ncc2c(S(=O)(=O)C3CC3)cc(Cl)cc21` [Compound 145, (R)-2-(6-chloro-4-(cyclopropylsulfonyl)-1H-indazol-1-yl)-N-(5-fluorothiazol-2-yl)-3-(tetrahydro-2H-pyran-4-yl)propanamide] gave an EC50 of 3980 to 12600 nM and an Emax [1] of no more than 90%.
